Some test systems named below: HCC-2998 colon; HCT-116 colon; HOP-92 NSCLC; HOP-62 NSCLC; SN12C renal; COLO 205 colon; IGROV1 ovarian; SR leukemia; MDA-MB-231 breast; NCI/ADR-RES ovarian.
Assay in all cases: NCI anticancer screen, dose series, 48 h

“And” between values parts separate entries of the source, which are not always exact repeats. Identical values can stand only once.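 Each compound was tested at five concentrations against cells in 96-well plates for 48 hours. Here, GI50 denotes the concentration required for 50% inhibition of growth. TGI is the concentration that stops growth completely.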

For `CS(=O)(=O)O[C@H]1C(=O)N(c2cc3c4ccccc4ccc3c3ccccc23)[C@@H]1c1ccccn1`, the GI50 in the test with HCC-2998 colon was 1.25 µM; in the test with HCT-116 colon, 0.372 µM; with HOP-92 NSCLC, 0.395 µM; with HOP-62 NSCLC it was 0.612 µM; with SN12C renal it was 0.737 µM; in the test with COLO 205 colon it was 0.398 µM. In addition, the GI50 in the test with IGROV1 ovarian was 2.14 µM; with SR leukemia, 0.384 µM; in the test on MDA-MB-231 breast, 1.07 µM; with NCI/ADR-RES ovarian it was 0.523 µM. In addition, the TGI is over 100 µM in the test on HCC-2998 colon; 23 µM in the test with HCT-116 colon; 56.3 µM with HOP-92 NSCLC; over 100 µM in the test on HOP-62 NSCLC; over 100 µM in the test with SN12C renal; 1.95 µM in the test with COLO 205 colon. The TGI was over 100 µM with IGROV1 ovarian, over 100 µM in the test on SR leukemia, 14 µM in the test with MDA-MB-231 breast and over 100 µM in the test with NCI/ADR-RES ovarian.
Regarding `O=C(Nc1ccc(Oc2ccc(NC(=O)Nc3ccccc3Cl)cc2)cc1)Nc1ccccc1Cl`, the GI50 is 8.47 µM with HCC-2998 colon; 1.59 µM in the test on HCT-116 colon; 1.34 µM in the test with HOP-92 NSCLC; 12.4 µM in the test on HOP-62 NSCLC; 7.55 µM in the test on SN12C renal; 15.7 µM in the test on COLO 205 colon. The GI50 is 3.57 µM in the test with IGROV1 ovarian, 0.453 µM in the test on SR leukemia, 9.4 µM in the test with MDA-MB-231 breast and 10.8 µM in the test on NCI/ADR-RES ovarian. For the same compound, the TGI is over 51.7 µM in the test with HCC-2998 colon; over 100 µM in the test on HCT-116 colon; 9.53 µM with HOP-92 NSCLC; 34.1 µM in the test with HOP-62 NSCLC; over 100 µM with SN12C renal; over 100 µM with COLO 205 colon. Besides, the TGI was 14.8 µM with IGROV1 ovarian, 13.3 µM with SR leukemia, 29.6 µM with MDA-MB-231 breast and over 63.8 µM in the test with NCI/ADR-RES ovarian.
As for `COc1cc(-c2cc(-c3cccs3)c(C#N)c(N3CCOCC3)n2)cc(OC)c1OC`, the GI50 in the test on HCC-2998 colon is 21.7 µM; in the test on HCT-116 colon, 4.14 µM; with HOP-92 NSCLC, 4.73 µM; in the test on HOP-62 NSCLC it was over 58.7 µM; in the test with SN12C renal it was over 100 µM; with COLO 205 colon it was 2.3 µM. Further, the GI50 is 13.7 µM in the test with IGROV1 ovarian, 1.93 µM with SR leukemia, 5.83 µM with MDA-MB-231 breast and 5.08 µM in the test on NCI/ADR-RES ovarian. In addition, the TGI in the test on HCC-2998 colon was over 100 µM; with HCT-116 colon, over 100 µM; with HOP-92 NSCLC, over 100 µM; in the test with HOP-62 NSCLC, over 100 µM; with SN12C renal it was over 100 µM; with COLO 205 colon, 6.62 µM. The TGI in the test with IGROV1 ovarian was over 100 µM; in the test on SR leukemia it was 8.11 µM; in the test on MDA-MB-231 breast, over 100 µM; in the test with NCI/ADR-RES ovarian, over 100 µM.
For the compound `C=C1C[C@@H](O)[C@@H](Br)C(C)(C)[C@]12CCC(C)(Br)C(Cl)C2` (some centres undefined), the GI50 with HCC-2998 colon is 17.1 µM; with HCT-116 colon, 19.3 µM; in the test on HOP-92 NSCLC, 20.3 µM; in the test with HOP-62 NSCLC, 15.4 µM; in the test on SN12C renal, 16.5 µM; with COLO 205 colon it was 0.627 µM. Besides, the GI50 in the test on IGROV1 ovarian is 18 µM; in the test on SR leukemia it was 18.9 µM; in the test on MDA-MB-231 breast, 16.8 µM; with NCI/ADR-RES ovarian, 22.5 µM. Moreover, the TGI was > 50 µM and 30.8 µM with HCC-2998 colon; > 50 µM and 36.2 µM in the test on HCT-116 colon; > 50 µM and 39.3 µM in the test with HOP-92 NSCLC; > 50 µM and 35.9 µM in the test on HOP-62 NSCLC; > 50 µM and 31.3 µM in the test with SN12C renal; 1.71 µM and 2.09 µM in the test with COLO 205 colon. Also, the TGI was > 50 µM and 36.1 µM in the test with IGROV1 ovarian; > 50 µM and 37.2 µM in the test with SR leukemia; > 50 µM and 31.5 µM in the test with MDA-MB-231 breast; > 50 µM and 56 µM with NCI/ADR-RES ovarian.
Turning to `COc1ccc2nc3cc(Cl)ccc3c(NCCNCC(O)CO)c2c1` (centres undefined), the GI50 in the test with HCC-2998 colon was 1.59 µM; in the test with HCT-116 colon, 0.391 µM; in the test with HOP-92 NSCLC it was 2.8 µM; in the test on HOP-62 NSCLC it was 1.1 µM; in the test with SN12C renal, 0.946 µM; in the test on COLO 205 colon, 0.622 µM. Also, the GI50 in the test on IGROV1 ovarian was 1.7 µM; with SR leukemia it was 0.597 µM; in the test on MDA-MB-231 breast, 1.25 µM; in the test on NCI/ADR-RES ovarian, 16.2 µM. In addition, the TGI with HCC-2998 colon came out at 6.55 µM; in the test with HCT-116 colon, 2.83 µM; with HOP-92 NSCLC, 7.18 µM; with HOP-62 NSCLC, 4.74 µM; in the test on SN12C renal, 9.94 µM; in the test on COLO 205 colon it was 2.41 µM. The TGI was 11.7 µM in the test with IGROV1 ovarian, 10.8 µM with SR leukemia, 5.83 µM in the test with MDA-MB-231 breast and 36.1 µM with NCI/ADR-RES ovarian.
In the case of `CCOC(=O)Nc1ccc2nc(N3CCCCCC3)sc2c1`, the GI50 is 7.59 µM in the test with HCC-2998 colon; 0.573 µM in the test on HCT-116 colon; 6.15 µM in the test with HOP-92 NSCLC; 3.75 µM in the test on HOP-62 NSCLC; 5.08 µM in the test on SN12C renal; 1.35 µM in the test on COLO 205 colon. Moreover, the GI50 with IGROV1 ovarian is 4.36 µM; with SR leukemia it was 0.405 µM; with MDA-MB-231 breast, 3.19 µM; in the test on NCI/ADR-RES ovarian, 1.03 µM. For the same compound, the TGI was 48 µM with HCC-2998 colon; over 77.9 µM in the test with HCT-116 colon; 58.9 µM in the test on HOP-92 NSCLC; over 100 µM in the test with HOP-62 NSCLC; over 100 µM in the test on SN12C renal; over 59 µM in the test on COLO 205 colon. The TGI is over 100 µM with IGROV1 ovarian, over 100 µM in the test with SR leukemia, over 56.8 µM in the test with MDA-MB-231 breast and over 36.6 µM in the test with NCI/ADR-RES ovarian.
`COc1ccc(/C(=C/c2ccc3ccccc3c2)c2nn[nH]n2)cc1OC`: the GI50 was 5.2 µM in the test on HCC-2998 colon; 2.42 µM in the test on HCT-116 colon; 4.59 µM in the test with HOP-92 NSCLC; 2.33 µM with HOP-62 NSCLC; 9.97 µM in the test with SN12C renal; 2.27 µM in the test on COLO 205 colon. The GI50 in the test on IGROV1 ovarian is 4.23 µM; in the test on SR leukemia, 2.23 µM; in the test on MDA-MB-231 breast, 12.5 µM; in the test on NCI/ADR-RES ovarian, 1.03 µM. Also, the TGI in the test on HCC-2998 colon was 82.9 µM; in the test with HCT-116 colon it was over 100 µM; in the test on HOP-92 NSCLC, 79.8 µM; in the test on HOP-62 NSCLC, over 100 µM; in the test on SN12C renal, over 100 µM; in the test with COLO 205 colon, 6.56 µM. Further, the TGI with IGROV1 ovarian, with SR leukemia, in the test on MDA-MB-231 breast and in the test on NCI/ADR-RES ovarian was over 100 µM each time.
For the compound `O=C(CN1CCN(CCN2C(=O)c3cccc4cccc(c34)C2=O)CC1)Nc1ccc2ncsc2c1`, the GI50 is 5.84 µM in the test with HCC-2998 colon; 3.57 µM with HCT-116 colon; 5.24 µM in the test on HOP-92 NSCLC; 5.69 µM in the test with HOP-62 NSCLC; 5.5 µM in the test on SN12C renal; 5.44 µM with COLO 205 colon. The GI50 is 7.91 µM with IGROV1 ovarian, 1.38 µM in the test with SR leukemia, over 100 µM in the test on MDA-MB-231 breast and 6.2 µM in the test on NCI/ADR-RES ovarian. For the same compound, the TGI in the test on HCC-2998 colon was over 100 µM; in the test with HCT-116 colon it was 16.4 µM; in the test on HOP-92 NSCLC, over 100 µM; with HOP-62 NSCLC, 23.4 µM; in the test with SN12C renal, 19.9 µM; in the test on COLO 205 colon it was 54.6 µM. Besides, the TGI with IGROV1 ovarian was over 100 µM; in the test on SR leukemia it was 41.2 µM; in the test with MDA-MB-231 breast, over 100 µM; with NCI/ADR-RES ovarian, 53.8 µM.
For `O=C(Nc1ccn(C2CC(I)C(COC(c3ccccc3)(c3ccccc3)c3ccccc3)O2)c(=O)n1)c1ccccc1` (centres undefined), the TGI in the test with HCC-2998 colon turned out to be 21.5 µM; in the test on HCT-116 colon it was 12.2 µM; in the test on HOP-92 NSCLC, 13.2 µM; in the test with HOP-62 NSCLC it was 21.2 µM; in the test on SN12C renal, 12.6 µM; in the test with COLO 205 colon, 12.8 µM. In addition, the TGI with IGROV1 ovarian came out at 21.5 µM; in the test on SR leukemia, 2.15 µM; in the test on MDA-MB-231 breast, 17.9 µM; with NCI/ADR-RES ovarian, 20.2 µM.
As for `COc1ccc(C2CC(c3ccccc3)=NN2C(=O)c2cc(OC)c(OC)c(OC)c2)cc1O` (centres undefined), the GI50 with HCC-2998 colon was 0.724 µM; in the test on HCT-116 colon, 0.313 µM; with HOP-92 NSCLC, 1.72 µM; in the test on HOP-62 NSCLC, 0.397 µM; with SN12C renal it was 0.766 µM; with COLO 205 colon it was 2.96 µM. The GI50 in the test with IGROV1 ovarian was 0.498 µM; in the test on SR leukemia it was 0.302 µM; in the test with MDA-MB-231 breast, 0.902 µM; in the test with NCI/ADR-RES ovarian, 0.552 µM. Besides, the TGI in the test on HCC-2998 colon was determined as 4.08 µM; with HCT-116 colon, 3.05 µM; with HOP-92 NSCLC, 33.2 µM; with HOP-62 NSCLC, 5.21 µM; in the test on SN12C renal it was 34.4 µM; with COLO 205 colon, 10.4 µM. Further, the figures for the TGI in the test on IGROV1 ovarian, in the test on SR leukemia and in the test with MDA-MB-231 breast were over 100 µM, 5.85 µM and 18.1 µM, respectively.
On to `COc1ccc(C2=NN(C=O)C(c3ccc(OS(=O)(=O)c4ccc(C)cc4)c(OC)c3)C2)cc1` (centres undefined), for which the GI50 is over 100 µM in the test with HCC-2998 colon; 4.56 µM in the test on HCT-116 colon; 1.88 µM with HOP-92 NSCLC; 9.47 µM in the test on HOP-62 NSCLC; 65.9 µM in the test with SN12C renal; 8.44 µM in the test with COLO 205 colon. Also, the GI50 is 18.8 µM in the test with IGROV1 ovarian, 3.02 µM in the test with SR leukemia, 5.52 µM with MDA-MB-231 breast and 4.5 µM in the test with NCI/ADR-RES ovarian. Besides, the TGI with HCC-2998 colon was over 100 µM; in the test with HCT-116 colon it was over 100 µM; in the test with HOP-92 NSCLC, 31.1 µM; with HOP-62 NSCLC, 74 µM; with SN12C renal, over 100 µM; in the test on COLO 205 colon it was over 100 µM. In addition, the TGI in the test with IGROV1 ovarian, with SR leukemia, in the test with MDA-MB-231 breast and in the test on NCI/ADR-RES ovarian was over 100 µM in each case.
